This is an account of results in patent US20150313892A1, “PHARMACEUTICAL COMPOSITIONS FOR TREATING PAIN ASSOCIATED WITH DYSMENORRHEA” (priority 2014, published 2015).

One data set has as its target κ-opioid (Homo sapiens, UniProt P41145). The conditions noted are these: read-out: Binding Constant Ki, κ-opioid; cited from earlier work.
The next data set addresses NE reuptake (Homo sapiens, UniProt P23975).
The target of another data set is δ-opioid (Homo sapiens, UniProt P41143). The conditions noted are these: read-out: Binding Constant Ki, δ-opioid; cited from earlier work.
δ-opioid, sequence (P41143 whole entry): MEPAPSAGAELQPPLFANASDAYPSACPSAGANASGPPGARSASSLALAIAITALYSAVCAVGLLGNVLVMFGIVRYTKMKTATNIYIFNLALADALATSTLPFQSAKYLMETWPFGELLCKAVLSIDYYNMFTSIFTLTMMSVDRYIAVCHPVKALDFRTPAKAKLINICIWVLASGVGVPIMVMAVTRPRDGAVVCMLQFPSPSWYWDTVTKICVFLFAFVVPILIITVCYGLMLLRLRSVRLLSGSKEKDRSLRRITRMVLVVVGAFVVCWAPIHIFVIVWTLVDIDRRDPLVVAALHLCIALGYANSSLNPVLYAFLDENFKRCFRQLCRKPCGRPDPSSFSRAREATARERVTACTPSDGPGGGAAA
The conditions of data set [1]: in vivo, po; cited from earlier work.
Data set [2] relates to patients with diabetic neuropathy and fibromyalgia. In words: Pain relief in diabetic neuropathy and fibromyalgia patients. Particulars: 400 mg per day, alone.
Data set [3] concerns chronic sciatic nerve constriction injury. Particulars: chronic sciatic nerve constriction injury in rats; cited from earlier work.
Another data set addresses μ-opioid (Homo sapiens, UniProt P35372). The conditions noted are these: read-out: Binding Constant Ki, μ-opioid; cited from earlier work.
A further data set deals with NMDA. Particulars: cited from earlier work.
The target of the next data set is Sigma. The conditions noted are these: read-out: Binding Constant Ki, Sigma; cited from earlier work.
The target of another data set is 5-HT reuptake (Homo sapiens, UniProt P31645). The conditions noted are these: read-out: Binding Constant Ki, 5-HT, cited from earlier work.
5-HT reuptake, sequence (P31645 whole entry): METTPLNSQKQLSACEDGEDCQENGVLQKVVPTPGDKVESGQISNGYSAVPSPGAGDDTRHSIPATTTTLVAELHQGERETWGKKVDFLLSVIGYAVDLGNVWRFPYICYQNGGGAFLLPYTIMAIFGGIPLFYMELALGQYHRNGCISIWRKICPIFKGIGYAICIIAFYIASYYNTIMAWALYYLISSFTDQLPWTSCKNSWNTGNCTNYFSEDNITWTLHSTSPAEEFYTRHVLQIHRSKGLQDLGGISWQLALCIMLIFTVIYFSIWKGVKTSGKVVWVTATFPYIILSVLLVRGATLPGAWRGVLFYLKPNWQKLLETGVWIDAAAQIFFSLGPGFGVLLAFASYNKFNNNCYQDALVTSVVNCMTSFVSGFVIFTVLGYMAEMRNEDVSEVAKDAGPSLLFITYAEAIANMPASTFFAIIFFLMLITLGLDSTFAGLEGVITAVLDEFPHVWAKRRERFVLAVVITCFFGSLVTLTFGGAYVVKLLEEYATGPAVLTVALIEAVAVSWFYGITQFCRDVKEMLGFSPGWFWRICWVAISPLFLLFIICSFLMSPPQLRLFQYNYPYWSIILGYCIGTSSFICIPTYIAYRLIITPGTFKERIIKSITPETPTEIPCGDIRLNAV
The next data set deals with α2δ. The conditions noted are these: read-out: α2δ Binding; cited from earlier work.
Data set [4] concerns cellular uptake of dopamine, noradrenaline, or serotonin. The conditions noted are these: cited from earlier work.
The conditions of data set [5]: cited from earlier work.
In data set [6] the test system is uptake of norepinephrine (NE), serotonin (5-HT) and dopamine. Particulars: cited from earlier work.
Data set [7] concerns α or β adrenergic, muscarinic, histaminergic, and dopaminergic receptors. The conditions noted are these: cited from earlier work.
For data set [8], the system named is patients with postherpetic neuralgia or painful diabetic neuropathy. Particulars: oral, cited from earlier work.
The subject of data set [9] is transient K^+ channels in hippocampal neurons. Particulars: read-out: IC50, inhibition of transient K+ channels; cited from earlier work.
Another data set has as its system postoperative patients. The conditions noted are these: intravenous; 30-mg/kg bolus, 10 mg/kg/h infusion for 48 hours; cited from earlier work.
The next data set has as its system patients, pain score. The conditions noted are these: cited from earlier work.
Data set [10] has as its system patients with neuropathic pain associated with diabetic peripheral neuropathy. Particulars: diabetic peripheral neuropathy trials; cited from earlier work.
Data set [11] concerns patients with fibromyalgia. Particulars: fibromyalgia trials, cited from earlier work.
The test system of data set [12] is persons undergoing third molar surgery. The conditions noted are these: cited from earlier work.
[13] abbreviates: reuptake inhibition; read-out: Binding Constant Ki, NE; cited from earlier work.
The mark [14] stands for this setting: read-out: Binding Constant Ki, NMDA.
The mark [15] stands for this setting: read-out: Binding Constant Ki, NE; reuptake inhibition; cited from earlier work.

Where two headings read alike, the source gives them in different places.

κ-opioid, sequence (P41145 whole entry): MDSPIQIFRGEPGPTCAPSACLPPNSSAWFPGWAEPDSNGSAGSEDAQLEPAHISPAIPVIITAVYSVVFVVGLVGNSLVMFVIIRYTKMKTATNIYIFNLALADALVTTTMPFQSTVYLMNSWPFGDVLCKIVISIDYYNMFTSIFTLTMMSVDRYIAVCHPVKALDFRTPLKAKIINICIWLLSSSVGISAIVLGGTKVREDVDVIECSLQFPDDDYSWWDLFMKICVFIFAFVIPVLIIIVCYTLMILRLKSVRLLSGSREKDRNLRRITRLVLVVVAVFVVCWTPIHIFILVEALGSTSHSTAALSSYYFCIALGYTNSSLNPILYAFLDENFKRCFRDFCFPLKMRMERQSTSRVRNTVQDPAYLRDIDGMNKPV
NE reuptake, sequence (P23975 whole entry): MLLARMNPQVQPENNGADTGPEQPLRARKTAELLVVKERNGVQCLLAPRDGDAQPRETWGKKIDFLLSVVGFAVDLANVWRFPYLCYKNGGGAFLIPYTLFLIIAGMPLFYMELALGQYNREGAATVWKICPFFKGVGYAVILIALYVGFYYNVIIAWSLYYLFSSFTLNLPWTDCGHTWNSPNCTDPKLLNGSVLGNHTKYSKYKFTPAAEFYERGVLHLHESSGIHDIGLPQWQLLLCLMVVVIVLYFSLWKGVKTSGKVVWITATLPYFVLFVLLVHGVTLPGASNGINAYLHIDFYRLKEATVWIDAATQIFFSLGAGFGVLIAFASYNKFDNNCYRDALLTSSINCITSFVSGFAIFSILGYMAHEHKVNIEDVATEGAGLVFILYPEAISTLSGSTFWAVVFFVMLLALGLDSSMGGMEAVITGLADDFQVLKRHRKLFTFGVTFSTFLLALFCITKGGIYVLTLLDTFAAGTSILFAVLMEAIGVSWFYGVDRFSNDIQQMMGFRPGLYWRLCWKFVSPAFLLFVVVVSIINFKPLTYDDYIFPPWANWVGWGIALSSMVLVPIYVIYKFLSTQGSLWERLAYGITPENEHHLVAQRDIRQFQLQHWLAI
μ-opioid, sequence (P35372 whole entry): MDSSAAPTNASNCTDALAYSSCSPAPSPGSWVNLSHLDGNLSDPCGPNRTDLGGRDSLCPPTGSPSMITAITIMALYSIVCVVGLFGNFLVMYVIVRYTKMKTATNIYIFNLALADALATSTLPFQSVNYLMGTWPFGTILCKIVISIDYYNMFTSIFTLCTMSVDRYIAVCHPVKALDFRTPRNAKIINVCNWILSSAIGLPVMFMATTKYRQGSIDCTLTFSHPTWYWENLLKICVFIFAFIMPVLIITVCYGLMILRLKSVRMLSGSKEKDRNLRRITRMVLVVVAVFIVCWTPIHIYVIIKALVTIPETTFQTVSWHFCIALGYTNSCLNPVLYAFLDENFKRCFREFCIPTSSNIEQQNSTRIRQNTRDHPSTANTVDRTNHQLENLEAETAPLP

On to `COc1cccc(C2(O)CCCCC2CN(C)C)c1` (racemic) [(±) Tramadol, (+/−)-trans(RR,SS)-2-[(di-methylamino)methyl]-1-(3-methoxyphenyl)cyclohexanol], for which the figures for the Ki at κ-opioid, at NE reuptake (setting [13]) and on δ-opioid were 42700 nM, 785 nM and 57700 nM, respectively. In addition, the “duration of the analgesic effect” value in [1] is “about 6 hours”. The reduction in pain in data set [2] is 30-40%.
As to `COc1ccc(C(CN(C)C)C2(O)CCCCC2)cc1` (racemic) [Venlafaxine, (R/S)-1-[2-(dimethylamino)-1-(4-methoxyphenyl)ethyl]cyclohexanol], the “reversing chronic neuropathic pain secondary to thermal hyperalgesia; hyperalgesia of neuropathic pain” value in [3] was “effective”.
Turning to `COc1ccc2c(c1)[C@@]13CCCC[C@H]1[C@@H](C2)N(C)CC3` [Dextromethorphan, (+)-3-methoxy-N-methylmorphinan], the Ki at μ-opioid is 1280 nM; on NMDA (setting [14]), 2910 nM; on Sigma, 365 nM; on δ-opioid, 11500 nM.
Turning to `CN1CC[C@@]23CCCC[C@@H]2[C@@H]1Cc1ccc(O)cc13` [Dextrorphan], the Ki on κ-opioid was 5950 nM; at NE reuptake (setting [15]), 340 nM; on 5-HT reuptake (reuptake inhibition), 401 nM; on δ-opioid, 34700 nM.
For `NCC1(CC(=O)O)CCCCC1` [Gabapentin], the Ki on α2δ is 59 nM. Further, the “cellular uptake of dopamine, noradrenaline, or serotonin” value in [4] was “did not alter”. Besides, the Bioavailability entry in [5] (900 mg/day given in 3 divided doses) is on record as “approximately 60%”; in data set [5] (1200 mg/day given in 3 divided doses) it was roughly 47%; in data set [5] (2400 mg/day given in 3 divided doses) it was roughly 34%; in [5] (3600 mg/day given in 3 divided doses), roughly 33%; in [5] (4800 mg/day given in 3 divided doses), roughly 27%. For the same compound, in data set [5] (after 150 mg intravenous administration, Mean±SD), the “apparent volume of distribution” value is 58 ± 6 L. Moreover, the “increase in AUC and Cmax with food” value in data set [5] (food effect) is 14%. Besides, the “bound to plasma protein” value in [5] (in vivo) is on record as “Less than 3%”. Moreover, the metabolism in humans result in data set [5] (in vivo) was “not appreciably metabolized”. The “steady-state predose (Cmin) concentration in cerebrospinal fluid, of corresponding plasma concentration” value in data set [5] (patients with epilepsy) is recorded as “approximately 20%”. For the same compound, the elimination half-life in data set [5] (unaltered by dose or multiple dosing) is 5 to 7 h.
For `CN1CC[C@]23CCCC[C@H]2[C@H]1Cc1ccc(O)cc13` [Levorphanol], the Ki was 4.2 nM at κ-opioid, 1210 nM on NE reuptake (setting [15]), 86.3 nM at 5-HT reuptake and 3.61 nM at δ-opioid.
For `C[C@]12N[C@H](Cc3ccccc31)c1ccccc12` [MK-801], the Ki on NMDA (high, read-out: Binding Constant Ki, NMDA (high)) was […]; at NMDA (low, read-out: Binding Constant Ki, NMDA (low)) it was […].
As for `CCN(CC)C(=O)C1(c2ccccc2)CC1CN` (centres unmarked) [Milnacipran], the Ki on NMDA (setting [14]) was 6300 nM. Moreover, the uptake of dopamine entry in data set [6] is “does not affect”. The “affinity for α or β adrenergic, muscarinic, histaminergic, and dopaminergic receptors” value in data set [7] is “no affinity”.
Turning to `CN(C)CCC=C1c2ccccc2CCc2ccccc21` [amitriptyline], the “patients with good or moderate response” value is reported as “three-quarters” in [8] (painful diabetic neuropathy) and “about two-thirds” in data set [8] (postherpetic neuralgia).
On to `CN(C)CCCN1c2ccccc2CCc2ccccc21` [imipramine], for which the IC50 (in general, the concentration at which inhibition is half-maximal) in data set [9] was roughly 6000 nM.
In the case of `[Mg]` [magnesium], the “use of narcotics in postoperative patients” value in the data set with postoperative patients was “reduced the use of narcotics”.
`CC(C)C[C@H](CN)CC(=O)O` [pregabalin]: the “endpoint mean pain score (proportion with at least 50% reduction in pain score increased)” value in the data set on patients, pain score (8-week study, 50 and 100 mg three times a day vs placebo) is on record as “statistically significantly improved”; with patients, pain score (8-week study, 100 or 200 mg three times a day vs placebo, by creatinine clearance) it was “statistically significantly improved”; in the data set on patients, pain score (13-week study, 75, 150, 300 mg twice daily vs placebo, creatinine clearance greater than 60 mL/min, all doses) it was “statistically significantly improved”; with patients, pain score (100 and 200 mg three times a day), “statistically significantly improved”. In addition, the figures for the “discontinuation due to dizziness” value in data set [10] and in data set [11] were 3% and 6%, respectively. For the same compound, the “discontinuation due to somnolence” value in data set [10] is listed as 2%; in data set [11] it was 3%. In addition, the “patients discontinued prematurely due to adverse reactions” value in data set [10] was 9%; in data set [11] (150-600 mg/day), 19%. In data set [10], the “withdrawal due to asthenia, confusion, and peripheral edema, each” value was “approximately 1%”. Further, in data set [11], the “withdrawal due to fatigue, headache, balance disorder, and weight increased, each” value is “approximately 1%”.
As to `N[C@@H](Cc1c[nH]c2ccccc12)C(=O)O` [tryptophan], in data set [12], the “effect on post-operative pain or on the consumption of other analgesics” value is recorded as “no effect”.
As to O-desmethyltramadol [(±) M1], the Ki was 242 nM on κ-opioid, 1520 nM on NE reuptake (setting [13]) and greater than 16000 nM on NMDA (setting [14]).
